Test results: patent US20040259861A1, “Medicament inhibiting sodium/calcium exchange system” (priority 2001, published 2004)

Target: T1, sodium/calcium exchanger (Rattus norvegicus, UniProt Q01728)
T1 construct: The heart of the rat was excised and perfused with Krebs buffer solution; from tissue; host or cells: isolated Langendorff-perfused rat heart
Assay: Langendorff-perfused rat heart, monensin treatment plus ischemia/reperfusion: ventricular total calcium content and recovery in contractile tension
Settings: for Calcium Content: isolated rat heart, monensin 5 μM 10 min, ischemia 15 min, reperfusion 30 min; for effect on decreased recovery in contractile tension (in words) / effect on increased ventricular calcium content (in words): monensin treatment and ischemia/reperfusion, rat heart
Protocol: The heart of the rat was excised and perfused with Krebs buffer solution (in mM: NaCl 119, KCl 4.6, MgSO4.7H2O 1.2, CaCl2.2H2O 1.3, NaHCO3 25, KH2PO4 1.2, glucose 11; pH 7.4, 37° C.) according to Langendorff method. A thread attached to the apex of the heart was connected to a tension transducer to determine contractile tension. The heart was perfused with a perfusion solution containing monensin (5 μ M; sodium ionophore) for 10 min and then ischemia was induced by a cessation of coronary flow (for 15 min). After reperfusion for 30 min, the heart was liquefied in nitric acid, and ventricular total calcium content was determined by atomic absorption analysis. Contractile tension was measured during the experiment, and recovery in contractile tension at 30 min of reperfusion related to its pre-value was used as an index of cardiac contraction.

Row | Calcium Content (10^−3 M) [µmol/g] | Calcium Content (10^−4 M) [µmol/g] | effect on decreased recovery in contractile tension (in words) | effect on increased ventricular calcium content (in words) | Calcium Content (10^−5 M) [µmol/g] | Structure (SMILES) | Calcium Content (10^−6 M) [µmol/g] | Calcium Content (10^−7 M) [µmol/g] | effect on increased ventricular calcium content (in words) (listed as The medicament of the present invention, monohydrate) | effect on increased ventricular calcium content (in words) (listed as the medicament of the present invention, monohydrate)
1 | 4.26 ± 0.40 | 5.30 ± 0.25 | failed to exhibit these effects | failed to exhibit these effects | – | N=C(N)NC(=O)c1nc(Cl)c(N)nc1N [Amiloride] | – | – | – | –
2 | – | – | failed to exhibit these effects | failed to exhibit these effects | 5.89 ± 0.22 | COc1ccc([C@@H]2Sc3ccccc3N(CCN(C)C)C(=O)[C@@H]2OC(C)=O)cc1 [Diltiazem] | 5.75 ± 0.16 | – | – | –

Row | Structure (SMILES) | Calcium Content (10^−3 M) [µmol/g] | Calcium Content (10^−4 M) [µmol/g] | effect on decreased recovery in contractile tension (in words) | effect on increased ventricular calcium content (in words) | Calcium Content (10^−5 M) [µmol/g] | Calcium Content (10^−6 M) [µmol/g] | Calcium Content (10^−7 M) [µmol/g] | effect on increased ventricular calcium content (in words) (listed as The medicament of the present invention, monohydrate) | effect on increased ventricular calcium content (in words) (listed as the medicament of the present invention, monohydrate)
3 | Cc1ccc(N2CCNCC2)c(S(=O)(=O)O)c1.O [Compound of the Present Invention, 5-methyl-2-(1-piperazinyl)benzenesulfonic acid monohydrate] | – | – | improved | – | – | 2.72 ± 0.18 | 3.72 ± 0.16 | improved | effective in reducing increase in ventricular calcium content
